Measured values: patent US11666565B2, “Treatment of cancer using a SMAD3 inhibitor” (The Chinese University of Hong Kong, priority 2012, dated 2023)

Assays:
lung carcinoma (LLC) = test system: lung carcinoma (LLC)
Procedure: (§1) Therapeutic effect of SIS3 was tested in subcutaneously invasive mouse model of lung carcinoma and melanoma. Lucifase-labeled highly invasive mouse lung carcinoma cells (LLC-luc) and melanoma cells (B16F10-luc) were injected subcutaneously into genetically-identical C57/BL6 mice at a dose of 2 million cells in 200 ul PBS per mouse. Cancer growth, invasion, and metastasis were monitored by measuring tumor size, weight, and bioluminescent imaging weekly. After cancer was established at one week after implantation, tumor-bearing mice received intraperitoneally SIS3 at dosages of 2.5, 5, and 10 ug/Kg body weight daily for 2 weeks. Control animals received daily saline, instead of SIS3, and a group of tumor-bearing mice without any treatment (used as untreated controls) were also monitored. Five mice per group were used in this study. Mice were weighed and tumor size or metastasis was examined by live bioluminescent imaging weekly. The survival rate was recorded. All mice were euthanized 2 weeks after treatment for further examination by histology and tumor volume and weight, invasion, and metastasis.

melanoma (B16F10) = conditions: syngeneic mouse model, N=5
Procedure: as §1

In the case of `COc1cc2c(cc1OC)CN(C(=O)/C=C/c1c(-c3ccccc3)n(C)c3ncccc13)CC2` [SIS3, (6,7-Dimethoxy-2-((2E)-3-(1-methyl-2-phenyl-1H-pyrrolo[2,3-b]pyridin-3-yl-prop-2-enoyl))-1,2,3,4-tetrahydroisoquinoline)], the detectability of cancers (lung carcinoma (LLC); after 10 days treatment with SIS3 at doses of 5-10 μg/g body weight, N=5, FIG. 6) is reported as “most of cancers become undetectable”, the “invasion into the cancer surrounding tissues and metastasis to lymph nodes, lung, liver, gastric and colon tissue” value (lung carcinoma (LLC); lung carcinoma (LLC) mouse model, FIGS. 3-7) is reported as “suppressed” and the “cancer growth as demonstrated by tumor weight” value (lung carcinoma (LLC); subcutaneous LLC, 2 million cells/mouse, syngeneic mouse model, N=5, FIG. 7A) is reported as “prevents cancer growth”. The cancer weight (melanoma (B16F10); subcutaneous melanoma B16F10, 3 million cells/mouse, FIG. 4) was “markedly lowering the cancer weight” and the “melanoma (B16F10) growth by live imaging analysis” value (melanoma (B16F10); SIS3 intraperitoneally daily, 2.5, 5 and 10 ug/Kg body weight, FIG. 3) was “inhibits melanoma (B16F10) growth in a dosage-dependent manner”.
